One block for each compound: values may come before it.
Columns and labels:
[1] = Long-term accelerated aging of NaF(aq)-hybrid suspensions, fluoride availability by fluoride-sensitive electrode; format: physicochemical; details: supernatant, triplicate
Procedure: Long-term accelerated aging studies were performed on NaF(aq)-hybrid suspensions. The experiments were carried out in triplicate with 1 mL of each supernatant aspirated, mixed with 1 mL of TISAB II (1:1), and measured with a fluoride-sensitive electrode calibrated to known standards of 100, 950, and 1900 ppm fluoride.
The purpose of this study was to determine if the NaF(aq)-hybrid suspensions maintain sufficient fluoride availability. • 0.24% and 0.32% NaF systems were aged for 122 Days @ 40° C. • 0.05% NaF systems were aged for 119 Days @ 40° C. Results

[2] = In vitro remineralization/demineralization pH cycling study, Vickers surface microhardness of eroded enamel; design: species or system Bovine; details: change in Vickers microhardness relative to baseline
Procedure: An efficacy study was run in order to evaluate in multiple pH remin/demin cycling models the efficacy of calcium phosphate blends prepared as described above in remineralizing eroded enamel. These studies involved 226 ppm fluoride rinse systems.
The experiment design for the remineralization/demineralization pH cycling study is as follows. Bovine enamel specimens were extracted, ground, and polished. Initial erosion was performed by immersing each enamel specimen in 10 ml of 1% citric acid (pH=3.8) for 30 minutes. After the immersion, four baseline Vickers indentations under a 200 gf load for 15 seconds were made on each specimen and those with a Vickers microhardness number between 200 and 230 VHN were selected for the study. There were three groups in this study (N=10 specimens per group): • Group 1: negative control (DI water) • Group 2: positive control (226 ppm F) • Group 3: 226 ppm F plus 0.004% β-tricalcium phosphate-silica-carbamide
The cycling regimen consisted of five, two-minute/day acid challenges and three, two-minute treatments/day. In between treatments and acid challenges, each specimen was immersed in artificial mineral mix. This process was repeated up to 20 days, after which a post-cycle acid challenge was administered using 1% citric acid (pH=3.8) for 11 minutes. The specimens were evaluated for Vickers surface microhardness after 10 and 20 days as well as after the post-cycle acid challenge. The change in Vickers microhardness relative to baseline values was then used as the performance gauge. Remineralization efficacy was evaluated by comparing post surface Vickers microhardness numbers to baseline surface Vickers values. Means and standard deviations of the means were calculated and the Student Q-test was employed to assess accuracy of the individual specimen measurements within each group. […]
This cycling study evaluated the β-tricalcium phosphate-silica-carbamide blend when combined in a 226 ppm fluoride (NaF(aq)) solution and tested in a pH cycling model. […]

Mean ppm F ± Std. Dev ([1]; aged for 119 Days @ 40° C.): 231.7 ± 0.5 ppm F
Structure (SMILES): [F-].[Na+] [0.05% NaF Control]

Mean ppm F ± Std. Dev ([1]; aged for 122 Days @ 40° C.): 1080.7 ± 4.8 ppm F
Structure (SMILES): [F-].[Na+] [0.24% NaF Control]

Mean ppm F ± Std. Dev ([1]; aged for 122 Days @ 40° C.): 1493.3 ± 3.3 ppm F
Structure (SMILES): [F-].[Na+] [0.32% NaF Control]

Structure (SMILES): [F-].[Na+] [Group 2]
Mean ΔVHN ± SEM, after 10 days ([2]; 10 days pH cycling, N=10 specimens per group): 73.2 ± 7.0^2
Mean ΔVHN ± SEM, after 20 days ([2]; 20 days pH cycling, N=10 specimens per group): 67.6 ± 7.6^2
Mean ΔVHN ± SEM, after post-cycle acid challenge ([2]; after 11-minute post-cycle acid challenge, 1% citric acid pH 3.8): 81.9 ± 7.1^2

— patent publication US8568696B2, “Grinding method for the manipulation or preservation of calcium phosphate hybrid properties” (Indiana Nanotech LLC, priority 2008, dated 2013)
